Tests used:
[1] = target: PHKg1 (Homo sapiens, UniProt Q16816); conditions: 1 μM; Run 1, Run 2
[2] = target: T1, SGK3/SGKL (Homo sapiens, UniProt Q96BR1); conditions: 1 μM; Run 1, Run 2
T1 sequence (Q96BR1 1-496): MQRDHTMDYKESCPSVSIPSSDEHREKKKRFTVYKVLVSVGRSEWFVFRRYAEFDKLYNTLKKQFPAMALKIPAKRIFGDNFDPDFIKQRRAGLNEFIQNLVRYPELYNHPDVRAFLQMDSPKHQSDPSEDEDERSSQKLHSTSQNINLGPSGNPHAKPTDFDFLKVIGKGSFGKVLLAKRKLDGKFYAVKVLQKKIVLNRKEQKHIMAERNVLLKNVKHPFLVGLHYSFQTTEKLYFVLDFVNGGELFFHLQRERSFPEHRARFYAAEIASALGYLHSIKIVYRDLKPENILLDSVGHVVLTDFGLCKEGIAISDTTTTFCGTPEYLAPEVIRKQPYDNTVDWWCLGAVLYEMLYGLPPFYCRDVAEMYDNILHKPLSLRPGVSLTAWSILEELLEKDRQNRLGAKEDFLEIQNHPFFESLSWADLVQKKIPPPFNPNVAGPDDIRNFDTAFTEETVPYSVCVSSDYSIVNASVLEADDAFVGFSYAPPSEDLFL

[3] = target: SIK3 (Homo sapiens, UniProt Q9Y2K2); conditions: 1 μM; Run 1, Run 2
Sequence of SIK3 (Q9Y2K2 whole entry): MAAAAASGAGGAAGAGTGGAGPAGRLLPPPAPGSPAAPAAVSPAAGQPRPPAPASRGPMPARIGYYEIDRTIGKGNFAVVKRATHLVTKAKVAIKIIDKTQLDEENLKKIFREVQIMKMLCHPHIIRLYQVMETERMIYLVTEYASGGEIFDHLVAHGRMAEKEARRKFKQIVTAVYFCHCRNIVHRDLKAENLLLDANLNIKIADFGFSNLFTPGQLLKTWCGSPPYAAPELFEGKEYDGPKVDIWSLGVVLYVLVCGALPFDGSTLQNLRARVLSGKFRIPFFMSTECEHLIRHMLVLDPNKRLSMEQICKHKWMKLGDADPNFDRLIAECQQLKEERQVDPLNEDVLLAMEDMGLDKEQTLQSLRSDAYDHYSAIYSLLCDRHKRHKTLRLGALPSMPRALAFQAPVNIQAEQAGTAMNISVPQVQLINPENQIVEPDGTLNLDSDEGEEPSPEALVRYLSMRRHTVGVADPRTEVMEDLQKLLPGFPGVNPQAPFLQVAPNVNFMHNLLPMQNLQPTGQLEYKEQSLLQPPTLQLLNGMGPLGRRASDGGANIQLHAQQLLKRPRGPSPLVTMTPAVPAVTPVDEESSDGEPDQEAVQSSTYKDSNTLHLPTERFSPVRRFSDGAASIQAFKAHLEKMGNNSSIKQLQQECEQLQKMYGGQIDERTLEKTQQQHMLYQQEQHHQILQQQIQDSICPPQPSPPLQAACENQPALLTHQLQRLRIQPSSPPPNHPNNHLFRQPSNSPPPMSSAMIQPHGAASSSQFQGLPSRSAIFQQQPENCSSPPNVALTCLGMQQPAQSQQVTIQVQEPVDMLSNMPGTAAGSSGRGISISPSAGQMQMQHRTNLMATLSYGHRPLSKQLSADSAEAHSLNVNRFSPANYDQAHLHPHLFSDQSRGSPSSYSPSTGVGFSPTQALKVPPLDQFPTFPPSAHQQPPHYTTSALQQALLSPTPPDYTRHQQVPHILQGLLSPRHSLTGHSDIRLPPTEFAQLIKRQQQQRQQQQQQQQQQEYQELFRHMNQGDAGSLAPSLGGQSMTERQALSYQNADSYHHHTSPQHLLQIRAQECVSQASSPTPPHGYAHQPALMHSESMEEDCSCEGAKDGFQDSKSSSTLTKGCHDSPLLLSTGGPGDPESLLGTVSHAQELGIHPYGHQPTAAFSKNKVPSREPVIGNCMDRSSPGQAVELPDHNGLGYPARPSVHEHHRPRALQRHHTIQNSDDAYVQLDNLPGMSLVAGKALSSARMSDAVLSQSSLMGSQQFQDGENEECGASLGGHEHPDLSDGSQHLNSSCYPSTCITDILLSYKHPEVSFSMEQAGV

[4] = target: CDK3/cyclin E (Homo sapiens, UniProt Q00526); conditions: 1 μM; Run 1, Run 2
Sequence of CDK3/cyclin E (Q00526 whole entry): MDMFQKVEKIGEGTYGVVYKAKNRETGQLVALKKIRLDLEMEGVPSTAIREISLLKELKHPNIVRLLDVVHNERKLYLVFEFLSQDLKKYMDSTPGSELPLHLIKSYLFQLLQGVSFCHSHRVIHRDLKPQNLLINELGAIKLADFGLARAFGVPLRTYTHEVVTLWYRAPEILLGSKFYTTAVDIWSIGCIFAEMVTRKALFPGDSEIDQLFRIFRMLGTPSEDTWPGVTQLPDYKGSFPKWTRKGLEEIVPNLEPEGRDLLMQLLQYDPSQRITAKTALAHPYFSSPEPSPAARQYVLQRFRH
Sequence of CDK3/cyclin E (P24864 whole entry, further chain): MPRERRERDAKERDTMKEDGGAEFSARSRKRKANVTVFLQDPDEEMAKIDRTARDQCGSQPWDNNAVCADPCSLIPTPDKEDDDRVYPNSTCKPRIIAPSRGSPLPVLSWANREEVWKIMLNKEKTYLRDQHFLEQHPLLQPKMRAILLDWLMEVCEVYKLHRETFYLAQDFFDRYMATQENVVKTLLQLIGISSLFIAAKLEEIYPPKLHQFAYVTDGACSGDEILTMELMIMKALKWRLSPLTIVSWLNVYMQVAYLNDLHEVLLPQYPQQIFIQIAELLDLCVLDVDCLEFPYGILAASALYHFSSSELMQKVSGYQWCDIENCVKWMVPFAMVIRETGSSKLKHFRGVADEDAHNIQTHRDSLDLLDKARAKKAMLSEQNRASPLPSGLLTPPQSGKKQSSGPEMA

[5] = target: T2, CK1a1L (Homo sapiens, UniProt Q8N752); experiment: biochemical; conditions: read-out: % enzyme activity, 1 μM; Run 1, Run 2
T2 sequence (Q8N752 1-337): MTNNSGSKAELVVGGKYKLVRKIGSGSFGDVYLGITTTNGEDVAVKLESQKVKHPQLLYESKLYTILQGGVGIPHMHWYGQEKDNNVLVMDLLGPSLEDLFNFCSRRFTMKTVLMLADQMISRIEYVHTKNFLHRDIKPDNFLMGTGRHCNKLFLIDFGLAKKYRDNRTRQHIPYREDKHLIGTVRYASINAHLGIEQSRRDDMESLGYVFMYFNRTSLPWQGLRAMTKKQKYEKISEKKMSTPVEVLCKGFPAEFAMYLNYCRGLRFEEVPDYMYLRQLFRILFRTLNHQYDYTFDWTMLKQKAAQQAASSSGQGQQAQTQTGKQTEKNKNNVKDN

[6] = target: CLK1 (Homo sapiens, UniProt P49759); conditions: 1 μM; Run 1, Run 2
Sequence of CLK1 (P49759 whole entry): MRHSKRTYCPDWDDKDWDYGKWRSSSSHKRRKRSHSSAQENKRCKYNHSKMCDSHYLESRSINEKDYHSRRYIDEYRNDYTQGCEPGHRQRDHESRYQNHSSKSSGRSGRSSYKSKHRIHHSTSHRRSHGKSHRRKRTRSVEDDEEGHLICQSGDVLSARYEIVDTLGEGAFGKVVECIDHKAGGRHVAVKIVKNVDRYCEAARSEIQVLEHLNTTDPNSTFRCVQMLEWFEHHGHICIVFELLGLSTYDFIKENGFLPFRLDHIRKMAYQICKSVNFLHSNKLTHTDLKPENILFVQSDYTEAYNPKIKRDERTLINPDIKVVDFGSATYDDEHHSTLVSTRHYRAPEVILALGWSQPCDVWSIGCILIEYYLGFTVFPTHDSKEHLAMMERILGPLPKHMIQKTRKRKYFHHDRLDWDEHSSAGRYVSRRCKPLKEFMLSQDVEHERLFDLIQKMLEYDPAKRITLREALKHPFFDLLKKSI

[7] = target: MARK3 (Homo sapiens, UniProt P27448); conditions: 1 μM; Run 1, Run 2
Sequence of MARK3 (P27448 whole entry): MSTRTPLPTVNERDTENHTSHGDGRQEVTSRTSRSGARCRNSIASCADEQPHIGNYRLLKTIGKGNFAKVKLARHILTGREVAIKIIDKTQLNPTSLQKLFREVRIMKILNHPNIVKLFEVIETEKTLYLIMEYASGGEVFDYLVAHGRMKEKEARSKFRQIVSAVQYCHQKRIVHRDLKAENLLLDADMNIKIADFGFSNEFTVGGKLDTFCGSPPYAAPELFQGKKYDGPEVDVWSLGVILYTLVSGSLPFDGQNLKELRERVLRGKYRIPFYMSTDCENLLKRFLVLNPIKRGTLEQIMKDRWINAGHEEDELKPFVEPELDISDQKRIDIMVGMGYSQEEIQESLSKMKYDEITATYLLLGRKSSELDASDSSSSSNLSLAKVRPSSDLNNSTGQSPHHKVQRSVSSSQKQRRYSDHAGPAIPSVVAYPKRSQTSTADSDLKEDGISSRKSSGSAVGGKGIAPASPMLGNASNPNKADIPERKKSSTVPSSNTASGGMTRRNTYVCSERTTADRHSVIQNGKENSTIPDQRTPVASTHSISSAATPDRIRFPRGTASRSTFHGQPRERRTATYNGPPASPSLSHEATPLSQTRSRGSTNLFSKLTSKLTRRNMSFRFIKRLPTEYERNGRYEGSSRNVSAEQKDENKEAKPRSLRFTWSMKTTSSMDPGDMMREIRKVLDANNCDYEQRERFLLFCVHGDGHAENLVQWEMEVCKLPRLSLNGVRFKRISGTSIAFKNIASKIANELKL

[8] = target: T3, PKG1a (Homo sapiens, UniProt Q13976); experiment: biochemical; conditions: read-out: % enzyme activity, 1 μM; Run 1, Run 2
T3 sequence (Q13976 1-671): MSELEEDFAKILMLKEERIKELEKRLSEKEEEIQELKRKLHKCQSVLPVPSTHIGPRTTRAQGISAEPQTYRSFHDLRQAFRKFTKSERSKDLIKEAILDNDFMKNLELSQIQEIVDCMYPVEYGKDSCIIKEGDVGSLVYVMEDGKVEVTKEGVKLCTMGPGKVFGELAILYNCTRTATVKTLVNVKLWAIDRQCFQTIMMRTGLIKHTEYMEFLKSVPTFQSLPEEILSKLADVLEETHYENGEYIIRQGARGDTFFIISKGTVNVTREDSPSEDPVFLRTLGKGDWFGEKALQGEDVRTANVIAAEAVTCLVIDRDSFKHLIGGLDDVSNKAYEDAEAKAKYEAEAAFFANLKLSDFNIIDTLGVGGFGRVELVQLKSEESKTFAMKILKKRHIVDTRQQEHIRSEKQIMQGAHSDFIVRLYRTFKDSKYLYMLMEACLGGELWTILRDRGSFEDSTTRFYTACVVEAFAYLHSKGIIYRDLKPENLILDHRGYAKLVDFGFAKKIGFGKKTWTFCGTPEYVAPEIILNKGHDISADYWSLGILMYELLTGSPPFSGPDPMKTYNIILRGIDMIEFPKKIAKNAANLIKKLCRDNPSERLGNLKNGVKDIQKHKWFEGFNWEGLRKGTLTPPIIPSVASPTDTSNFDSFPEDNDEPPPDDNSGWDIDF

[9] = target: T4, NLK (Homo sapiens, UniProt Q9UBE8); experiment: 375-member kinase panel; type: biochemical; conditions: Run 1, Run 2; for % enzyme activity: 1 μM; for remaining activity at 1 µM: read-out: % enzyme activity, 1 μM
T4 construct: purchased Reaction Biology Corporation
T4 sequence (Q9UBE8 1-527): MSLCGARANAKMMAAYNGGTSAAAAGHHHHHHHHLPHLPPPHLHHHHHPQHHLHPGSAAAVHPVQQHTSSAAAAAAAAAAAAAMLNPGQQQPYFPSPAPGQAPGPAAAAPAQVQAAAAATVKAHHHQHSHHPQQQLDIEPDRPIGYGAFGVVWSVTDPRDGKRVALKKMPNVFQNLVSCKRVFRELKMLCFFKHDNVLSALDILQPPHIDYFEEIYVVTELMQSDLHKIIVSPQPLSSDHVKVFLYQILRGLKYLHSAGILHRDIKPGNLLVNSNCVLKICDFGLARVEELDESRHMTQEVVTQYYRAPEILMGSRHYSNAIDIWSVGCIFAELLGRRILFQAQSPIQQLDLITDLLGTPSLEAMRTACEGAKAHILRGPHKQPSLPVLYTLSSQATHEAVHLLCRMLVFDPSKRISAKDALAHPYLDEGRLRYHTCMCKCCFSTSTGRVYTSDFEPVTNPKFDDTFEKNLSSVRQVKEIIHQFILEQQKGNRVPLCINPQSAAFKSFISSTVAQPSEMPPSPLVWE

Sequence of PHKg1 (Q16816 whole entry): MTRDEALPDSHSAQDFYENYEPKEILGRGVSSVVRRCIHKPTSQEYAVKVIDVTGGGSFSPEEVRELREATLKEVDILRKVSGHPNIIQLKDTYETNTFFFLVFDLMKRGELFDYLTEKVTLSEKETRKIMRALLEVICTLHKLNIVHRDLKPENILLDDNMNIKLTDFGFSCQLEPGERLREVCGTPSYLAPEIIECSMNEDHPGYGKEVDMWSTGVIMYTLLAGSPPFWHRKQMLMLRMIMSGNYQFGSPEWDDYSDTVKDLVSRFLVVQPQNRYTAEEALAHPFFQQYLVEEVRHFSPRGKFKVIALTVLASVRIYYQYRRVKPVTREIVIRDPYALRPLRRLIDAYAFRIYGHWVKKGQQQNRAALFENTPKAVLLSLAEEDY

Compound	% enzyme activity [1]	% enzyme activity [2]	% enzyme activity [3]	% enzyme activity [4]	remaining activity at 1 µM [5]	% enzyme activity [6]	% enzyme activity [7]	remaining activity at 1 µM [8]	% enzyme activity [9]	remaining activity at 1 µM [9]
COc1cc(-c2cncc(-c3ccc(N4C[C@@H](C)N(C)[C@@H](C)C4)cc3)c2C)cc(F)c1C(N)=O [Compound 26c, 2-Fluoro-6-methoxy-4-(4-methyl-5-(4-((3R,5S)-3,4,5-trimethylpiperazin-1-yl)phenyl)pyridin-3-yl)benzamide]	95.24%	93.33%	82.93%	78.38%	99.4%	86.91%	93.66%	102%	47.74%	50.4%
COc1cc(-c2cncc(-c3ccc(N4CCN(C)CC4)cc3)c2C)cc(F)c1C(N)=O [Compound 26a, 2-Fluoro-6-methoxy-4-(4-methyl-5-(4-(4-methylpiperazin-1-yl)phenyl)pyridin-3-yl)benzamide]	82.79%	99.35%	58.19%	81.63%	98.4%	94.42%	82.91%	97.9%	20.81%	22%
